Data as given in patent publication US20250089717A1, “FUNGICIDAL HALOMETHYL KETONES, HYDRATES AND ENOL ETHERS AND THEIR MIXTURES” (FMC CORPORATION, priority 2023, published 2025).

tested on: Phakopsora pachyrhizi; assay: Test A: preventive spray on soybean seedlings, Asian soybean rust, visual disease rating; type: in vivo; conditions: rate 10 ppm
From the text: General protocol for preparing test suspensions for Test A: the test compounds were first dissolved in acetone in an amount equal to 3% of the final volume and then suspended at the desired concentration (in ppm) in acetone and purified water (50/50 mix by volume) containing 250 ppm of the surfactant PEG400 (polyhydric alcohol esters). The resulting test suspensions were then used in Test A.
The test solution was sprayed to the point of run-off on soybean seedlings. The following day the seedlings were inoculated with a spore suspension of Phakopsora pachyrhizi (the causal agent of Asian soybean rust) and incubated in a saturated atmosphere at 22° C. for 24 h and then moved to a growth chamber at 22° C. for 8 days, after which time visual disease ratings were made.
A rating of 100 indicates 100% disease control and a rating of 0 indicates no disease control (relative to the controls).

SMILES | Test A rating (100 = 100% disease control, 0 = no disease control relative to the controls)
CCO/C(=C\Oc1ccc(Cn2cccc(C(=O)NOCC#N)c2=O)cc1)C(F)(F)F [compound 98] | 99%
C#CCONC(=O)c1cccn(Cc2ccc(O/C=C(\OCC)C(F)(F)F)cc2)c1=O [compound 100] | 98%
CCO/C(=C\Oc1ccc(Cn2cc(COC(=O)CC(C)(C)C)cn2)cc1)C(F)(F)F [compound 49] | 99%
CCO/C(=C\Oc1ccc(Cn2cc(COC(=O)COC)cn2)c(F)c1)C(F)(F)F [Compound 75] | 100%
C=CCON=C(OCC)c1cnn(CCc2ccc(O/C=C(\OCC)C(F)(F)F)cc2)c1 [compound 61] | 100%
C=C=CC(=O)NCc1cnn(Cc2ccc(OCC3(C(F)(F)F)OCCO3)cc2)c1 [Compound 84] | 99%
C#CCONC(=O)c1cc(Cc2ccc(O/C=C(\OCC)C(F)(F)F)cc2)ccn1 [Compound 131, 4-[[4-1[[(1Z)-2-ethoxy-3,3,3-trifluoro-1-propen-1-yl]oxy]phenyl]methyl]-N-(2-propyn-1-yloxy)-2-pyridinecarboxamide] | 100%
CCO/C(=C\Oc1ccc(Cn2cc(C(=O)NOCC3CC3)cn2)c(F)c1)C(F)(F)F [Compound 82] | 100%
CCO/C(=C\Oc1ccc(Cn2cc(COC(=O)OC)cn2)c(F)c1F)C(F)(F)F [Compound 69] | 100%
CCO/C(=C\Oc1ccc(Cn2cc(COC(=O)C3CCCC3)cn2)cc1)C(F)(F)F [compound 29] | 100%
CCO/C(=C\Oc1ccc(Cn2cccc(C(=O)NOCCOC)c2=O)cc1)C(F)(F)F [compound 103] | 97%
CCO/C(=C\Oc1ccc(Cn2cc(COCC3CC3)cn2)c(F)c1)C(F)(F)F [Compound 68] | 100%
CCO/C(=C\Oc1ccc(Cc2ccnc(C(=O)NOCC3CC3)c2)cc1)C(F)(F)F [Compound 132, 4-[[4-1[[(1Z)-2-ethoxy-3,3,3-trifluoro-1-propen-1-yl]oxy]phenyl]methyl]-N-(cyclopropylmethoxy)-2-pyridinecarboxamide] | 100%
C=CCON(CC)C(=O)c1cnn(Cc2ccc(O/C=C(\OCC)C(F)(F)F)cc2)c1 [Compound 55, ethyl 1-[[4-[[(1Z)-2-ethoxy-3,3,3-trifluoro-1-propen-1-yl]oxy]phenyl]methyl]-N-(2-propen-1-yloxy)-1H-pyrazole-4-carboxamide] | 100%
CCO/C(=C\Oc1ccc(Cn2cc(COC(=O)C3CC3)cn2)c(F)c1)C(F)(F)F [Compound 76] | 100%
CCO/C(=C\Oc1ccc(Cn2cc(COC(=O)C(C)(C)C)cn2)c(F)c1F)C(F)(F)F [Compound 72] | 100%
CCO/C(=C\Oc1ccc(Cn2cc(COC(=O)CC)cn2)c(F)c1F)C(F)(F)F [Compound 70] | 100%
CCO/C(=C\Oc1ccc(Cn2cc(COC(=O)COC)nn2)cc1)C(F)(F)F [Compound 10] | 0%
C=CCONC(=O)c1cnn(CCCc2ccc(O/C=C(\OCC)C(F)(F)F)cc2)c1 [compound 60] | 96%
CCO/C(=C\Oc1ccc(Cn2cc(COC(=O)CC(F)(F)F)nn2)cc1)C(F)(F)F [Compound 11] | 0%
CCO/C(=C\Oc1ccc(Cn2cc(C(=O)N(C)OCC3CC3)cn2)cc1)C(F)(F)F [compound 39] | 100%
CCO/C(=C\Oc1ccc(Cn2cc(C(=O)NOCC=CCl)cn2)cc1)C(F)(F)F [compound 32] | 100%
C=CCONC(=O)c1cn(Cc2ccc(O/C=C(\OCC)C(F)(F)F)cc2)nn1 [Compound 83] | 99%
CCO/C(=C\Oc1ccc(Cn2cc(COC(=O)C3CCCC3)nn2)cc1)C(F)(F)F [Compound 12] | 79%
CCO/C(=C\Oc1ccc(Cn2cc(C(=NOCC3CC3)OC)cn2)cc1)C(F)(F)F [compound 34] | 97%
C=CCOCc1cnn(Cc2ccc(O/C=C(\OCC)C(F)(F)F)cc2)c1 [compound 66] | 100%

same assay, conditions: rate 10 ppm, read-out: Test A rating (100 = 100% disease control, 0 = no disease control relative to the controls)

SMILES | pest or weed control at 10 ppm
CCO/C(=C\Oc1ccc(Cc2cccc(C(=O)N(C)OCC3CC3)n2)cc1)C(F)(F)F [Compound 123, 2-[[4-[[(1Z)-2-ethoxy-3,3,3-trifluoro-1-propen-1-yl]oxy]phenyl]methyl]-N-(cyclopropylmethoxy)-N-methyl-6-pyridinecarboxamide] | 100%
CCO/C(=C\Oc1ccc(Cn2cc(C(=O)NOCc3ccccc3)cn2)cc1)C(F)(F)F [Compound 31, 1-[[4-[[(1Z)-2-ethoxy-3,3,3-trifluoro-1-propen-1-yl]oxy]phenyl]methyl]-N-(phenylmethoxy)-1H-pyrazole-4-carboxamide] | 100%
C=CCONC(=O)c1ccn(Cc2ccc(O/C=C(\OCC)C(F)(F)F)cc2)c1 [compound 115] | 96%
C=CCONC(=O)c1cccc(Cc2ccc(O/C=C(\OCC)C(F)(F)F)cc2)n1 [Compound 109, 2-[[4-[[(1Z)-2-ethoxy-3,3,3-trifluoro-1-propen-1-yl]oxy]phenyl]methyl]-N-(2-propen-1-yloxy)-6-pyridinecarboxamide] | 100%
C=CCONC(=O)c1ccn(Cc2ccc(O/C=C(\OCC)C(F)(F)F)cc2)n1 [compound 111] | 100%
C=CCONC(=O)c1csc(Cc2ccc(O/C=C(\OCC)C(F)(F)F)cc2)n1 [compound 117] | 100%
CCO/C(=C\Oc1ccc(Cn2cc(COC(=O)C(C)C)cn2)cc1)C(F)(F)F [Compound 46, [1-[[4-[[(1Z)-2-ethoxy-3,3,3-trifluoro-1-propen-1-yl]oxy]phenyl]methyl]-1H-pyrazol-4-yl]methyl 2-methylpropanoate] | 100%
C=CCON(C)C(=O)c1cc(Cc2ccc(OCC3(C(F)(F)F)OCCO3)cc2)ccn1 [compound 130] | 99%
CCOC(=S)c1cnn(Cc2ccc(O/C=C(\OCC)C(F)(F)F)cc2)c1 [Compound 7, O-ethyl 1-[[4-[[(1Z)-2-ethoxy-3,3,3-trifluoro-1-propen-1-yl]oxy]phenyl]methyl]-1H-pyrazole-4-carbothioate] | 100%
CCO/C(=C\Oc1ccc(Cn2cc(COC(=O)C(C)(C)C)cn2)cc1)C(F)(F)F [Compound 47, [1-[[4-[[(1Z)-2-ethoxy-3,3,3-trifluoro-1-propen-1-yl]oxy]phenyl]methyl]-1H-pyrazol-4-yl]methyl 2,2-dimethylpropanoate] | 100%
C=CCON(C)C(=O)c1cccc(Cc2ccc(O/C=C(\OCC)C(F)(F)F)cc2)n1 [Compound 108, 2-[[4-[[(1Z)-2-ethoxy-3,3,3-trifluoro-1-propen-1-yl]oxy]phenyl]methyl]-N-methyl-N-(2-propen-1-yloxy)-6-pyridinecarboxamide] | 100%
C=CCON(C)C(=O)c1cc(Cc2ccc(O/C=C(\OCC)C(F)(F)F)cc2)ccn1 [compound 135] | 100%
C=CCO/N=C(/OCC)c1cnn(Cc2cccc(O/C=C(\OCC)C(F)(F)F)c2)c1 [compound 113] | 87%
C=CCO/N=C(\OCC)c1cc(Cc2ccc(O/C=C(\OCC)C(F)(F)F)cc2)ccn1 [compound 118] | 100%
C=CCONC(=O)c1cnn(Cc2cccc(O/C=C(\OCC)C(F)(F)F)c2)c1 [compound 114] | 100%
CCCC(C)C(=O)OCc1cnn(Cc2ccc(O/C=C(\OCC)C(F)(F)F)cc2)c1 (stereo not drawn) [Compound 30, [1-[[4-[[(1Z)-2-ethoxy-3,3,3-trifluoro-1-propen-1-yl]oxy]phenyl]methyl]-1H-pyrazol-4-yl]methyl 2-methylpentanoate] | 100%
CCO/C(=C\Oc1ccc(Cc2nc(C(=O)NOCCOC)cs2)cc1)C(F)(F)F [compound 112] | 100%
CCO/C(=C\Oc1ccc(Cn2cc(COC(=O)N(C)OC)cn2)cc1)C(F)(F)F [Compound 18, (Z)-(1-(4-((2-ethoxy-3,3,3-trifluoroprop-1-en-1-yl)oxy)benzyl)-1H-pyrazol-4-yl)methyl methoxy(methyl)carbamate] | 100%

same assay, conditions: rate 50 ppm

SMILES | Test A rating (100 = 100% disease control, 0 = no disease control relative to the controls)
CC(=O)OCc1cnn(Cc2ccc(OCC3(C(F)(F)F)OCCO3)cc2)c1 [Compound 90] | 100%
CCO/C(=C\Oc1ccc(Cn2cc(COC(=O)NC)cn2)cc1)C(F)(F)F [compound 15] | 100%
CC(C)CC(=O)OCc1cnn(Cc2ccc(OCC3(C(F)(F)F)OCCO3)cc2)c1 [Compound 92] | 100%

same assay, conditions: rate 50 ppm, read-out: Test A rating (100 = 100% disease control, 0 = no disease control relative to the controls)

SMILES | pest or weed control at 50 ppm
CCO/C(=C\Oc1ccc(Cn2cc(CC(=O)N(C)OC)cn2)cc1)C(F)(F)F [Compound 5, 1-[[4-[[(1Z)-2-ethoxy-3,3,3-trifluoro-1-propen-1-yl]oxy]phenyl]methyl]-N-methoxy-N-methyl-1H-pyrazole-4-acetamide] | 94%
